Measurements reported in US10252987B2, “Type of antiviral compound” (Institute of Medicinal Biotechnology, Chinese Academy of …, priority 2015, dated 2019).

test system: HCV; experiment: anti-HCV activity assay in cell culture (HCV RNA by one-step quantitative RT-PCR); assay type: cell-based; settings: Hepatitis C virus, Huh7.5, 96 h, compound at 10 μmol/L; Huh7.5 cells infected with HCV virus particles; cultured 96 hrs; HCV RNA in cells vs virus control group; read-out: percent inhibition (%)
Procedure: The assay results of anti-HCV activity of the compound synthesized according to the present invention in cell culture are shown in Table 1, wherein the molecular weight is calculated by ChemBioDraw 12.0 software from the molecular structure of each compound.
100 μL Huh7.5 cells were seeded in 96-well cell culture plate to 1×10^5/mL density, cultured in an incubator at 37° C. under the condition of 5% CO2 and saturated humidity for 6 hrs. Huh7.5 cells were then infected by viral solution containing HCV virus particles, and solutions of compound of the present invention at a concentration of 10 μmol/L liquid were added respectively, cultured for further 96 hrs, and then total RNA was extracted from the cells. Amount of HCV RNA in cells was determined by one-step quantitative RT-PCR, and compared to RNA levels of the virus control group to calculate the inhibition rate of compounds on HCV.

Compound	inhibition at 10 µM
CCc1ccc(NCc2cc(N3CCN(C)CC3)ccc2C#N)cc1 [Compound 13, 4-(4-methylpiperazin-1-yl)-2-(p-ethylphenylamino)methylbenzonitrile]	87%
CN(C)CNc1ccc(C#N)c(CN2CCN(c3ccc(C(C)(C)C)cc3)CC2)c1 [VI-33, 2-(4-(4-tert-butylphenyl)piperazin-1-yl)methyl-4-((N,N-dimethylamino)methyl)amino-benzonitrile]	90%
Cc1cc(N2CCN(Cc3cc(N4CCNCC4)ccc3C#N)CC2)ccc1Cl [VI-15, 4-(piperazin-1-yl)-2-(4-(3-methyl4-chlorophenyl)piperazin-1-yl)methylbenzonitrile]	95%
Cc1ccc(N2CCN(Cc3cc(N(C)CN4CCCC4)ccc3C#N)CC2)cc1 [VI-37, 4-((methyl)((pyrrolidin-1-yl)-methyl)amino)-2-(4-p-methylphenylpiperazin-1-yl)methylbenzonitrile]	87%
Cc1ccc(N2CCN(Cc3cc(N4CCNCC4)ccc3C#N)CC2)cc1 [VI-6, 4-(piperazin-1-yl)-2-(4-(4-methylphenyl)piperazin-1-yl)methylbenzonitrile]	88%
Cc1ccc(NCc2cc(N3CCCC(N)C3)ccc2C#N)cc1 (centres unmarked) [Compound 6, 4-(3-aminopiperidin-1-yl)-2-(p-methylphenylamino)methylbenzonitrile]	68%
Cc1ccc(NCc2cc(N3CCN(C)CC3)ccc2C#N)cc1 [Compound 3, 4-(4-methylpiperazin-1-yl)-2-(p-methylphenylamino)methylbenzonitrile]	92%
CN1CCN(c2ccc(C#N)c(CNc3ccc(C4CCCCC4)cc3)c2)CC1 [Compound 11, 4-(4-methylpiperazin-1-yl)-2-(p-cyclohexylphenylamino)methylbenzonitrile]	97%
Cc1cc(C2CCN(Cc3cc(N4CCN(C)CC4)ccc3C#N)CC2)ccc1C#N [VI-23, 4-(4-methylpiperazin-1-yl)-2-(4-(3-methyl-4-cyanophenyl)piperidin-1-yl)methylbenzonitrile]	77%
N#Cc1ccc(N2CCNCC2)cc1CNc1ccc(Cl)cc1 [Compound 9, 4-(piperazin-1-yl)-2-(p-chlorophenylamino)methylbenzonitrile]	92%

same assay, conditions: compound at 10 μmol/L; Huh7.5 cells infected with HCV virus particles; cultured 96 hrs; HCV RNA in cells vs virus control group

Compound	percent inhibition (%)
CN1CCN(c2ccc(C#N)c(CN3CCN(c4ccc(Br)cc4)CC3)c2)CC1 [VI-18, 4-(4-methylpiperazin-1-yl)-2-(4-(4-bromophenyl)piperazin-1-yl)methylbenzonitrile]	86%
CN(C)CCCN(C)c1ccc(C#N)c(CN2CCN(c3ccc(C4CCCCC4)cc3)CC2)c1 [VI-32, 4-(N,N′,N′-trimethyl1,3-propanediamin-1-yl)-2-(4-p-cyclohexylphenylpiperazin-1-yl)methylbenzonitrile]	80%
CN(C)CCCNc1ccc(C#N)c(CN2CCN(c3ccc(Cl)cc3)CC2)c1 [VI-29, 4-(N′,N′-dimethyl-1,3-propanediamin-1-yl)-2-(4-p-chlorophenylpiperazin-1-yl)methylbenzonitrile]	80%
CN(C)CCCNc1ccc(C#N)c(CN2CCN(c3ccccc3)CC2)c1 [VI-27, 4-(N′,N′-dimethyl-1,3-propanediamin-1-yl)-2-(4-phenylpiperazin-1-yl)methylbenzonitrile]	60%
CN(C)CCCNc1ccc(C#N)c(CNc2ccccc2)c1 [Compound 27, 4-(N,N-dimethyl-1,3-propanediamin-1-yl)-2-(phenylamino)methylbenzonitrile]	78%
COc1ccc(N2CCN(Cc3cc(NC(C)CN4CCCC4)ccc3C#N)CC2)cc1 (centres unmarked) [VI-46, 4-(1-(pyrrolidin-1-yl)propyl-2-yl)amino-2-(4-p-methoxyphenylpiperazin-1-yl)methylbenzonitrile]	95%
CN(C)CCCNc1ccc(C#N)c(CNc2ccc(Cl)cc2)c1 [Compound 29, 4-(N,N-dimethyl-1,3-propanediamin-1-yl)-2-(p-chlorophenylamino)methylbenzonitrile]	80%
